pKi: −log10 of the molar value.

This note sets out measurements from patent US7034056B2, “Aryl and biaryl compounds having MCH modulatory activity” (Pharmacopeia Drug Discovery, inc., priority 2001, dated 2006).

The assay deals with T1, hMCHR (MCH receptor) (Homo sapiens, UniProt Q99705).
T1 construct: (or internally produced); host or cells: CHO (Chinese hamster ovary) cells, membrane preparation
As to the kind of experiment: MCH Assay PCOP Protocol ([125I]-MCH SPA binding to hMCHR-CHO membranes). The conditions noted are these: [125I]-MCH 0.5 nM, hMCHR-CHO membranes; read-out: Activity (ranges of Ki values). The protocol: A reaction mixture of 10 μg hMCHR-CHO overexpressing membranes (from Receptor Biology, Inc., Beltsville, Md., or internally produced) and 100 μg/well WGA-SPA beads (from Amersham Pharmacia Biotech, Inc., Piscataway, N.J.)/100 μl was prepared in MCHR assay buffer (25 mM HEPES, pH 7.4, 10 mM NaCl, 10 mM MgCl2, 5 mM MnCl2, 0.1% BSA). […] The assay plates were shaken for 5 minutes on a plate shaker, then incubated for 2 hours before cpm/well were determined in a Microbeta Trilux counter (from PerkinElmer Wallac, Inc., Gaithersburg, Md.).

T1 sequence (Q99705 whole entry): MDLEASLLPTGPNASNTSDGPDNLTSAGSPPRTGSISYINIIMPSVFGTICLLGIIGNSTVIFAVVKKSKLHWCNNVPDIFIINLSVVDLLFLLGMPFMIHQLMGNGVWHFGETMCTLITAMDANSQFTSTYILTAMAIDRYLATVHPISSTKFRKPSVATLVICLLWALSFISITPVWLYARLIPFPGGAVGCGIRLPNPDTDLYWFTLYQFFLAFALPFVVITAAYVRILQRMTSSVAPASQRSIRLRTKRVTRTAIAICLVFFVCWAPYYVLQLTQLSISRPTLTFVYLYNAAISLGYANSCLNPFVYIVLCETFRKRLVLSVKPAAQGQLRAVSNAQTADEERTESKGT

Regarding `O=C(NCC(CCNC1CCCC1)c1ccc(Cl)c(Cl)c1)c1cc(C(F)(F)F)cc(C(F)(F)F)c1` (racemic) [Example 20, (R,S)-N-[4-Cyclopentylamino-2-(3,4-dichloro-phenyl)-butyl]-3,5-bis-trifluoromethyl-benzamide], the negative-log Ki (pKi) is 5.60 to 6.30. For the compound `O=S(=O)(NCC(CCNC1CCCC1)c1ccc(Cl)c(Cl)c1)c1ccc(Cl)c(Cl)c1` (racemic) [Example 21, (R,S)-3,4-Dichloro-N-[4-cyclopentylamino-2-(3,4-dichloro-phenyl)-butyl]-benzenesulfonamide], the pKi is 5.60 to 6.30. Take `O=C(NCC(CCNC1CCC1)c1ccc(Cl)c(Cl)c1)Nc1ccc(F)c([N+](=O)[O-])c1` (racemic) [Example 22]: the pKi was 5.60 to 6.30. To `CNCCC(CNC(=O)c1ccc(F)c(F)c1)c1ccc(-c2cccc(C#N)c2)cc1` (racemic) [Example 24, (R,S)-N-[2-(3′-Cyano-biphenyl-4-yl)-4-methylamino-butyl]-3,4-difluoro-benzamide] belongs 5.60 to 6.30; to `CN(C)CCC(CNS(=O)(=O)c1cc(Cl)cc(Cl)c1)c1ccc(-c2cccc(C#N)c2)cc1` (racemic) [Example 25, (R,S)-3,5-Dichloro-N-[2-(3′-cyano-biphenyl-4-yl)-4-dimethylaminobutyl]-benzenesulfonamide], 5.60 to 6.30. To `CC(C)NCCC(CNC(=O)Oc1ccc(Cl)cc1)c1ccc(-c2cccc(C#N)c2)cc1` (racemic) [Example 26, (R,S)-[-2-(3′-Cyano-biphenyl-4-yl)-4-isopropylaminobutyl]-carbamic acid-4-chlorophenyl ester] belongs 5.60 to 6.30; to `CS(=O)(=O)NC1CCN(CCC(CNC(=O)Nc2cc(Cl)cc(Cl)c2)c2ccc(-c3cccc(C#N)c3)cc2)CC1` (racemic) [Example 29, (R,S)-N-(1-{3-(3′-Cyano-biphenyl-4-yl)-4-[3-(3,5-dichloro-phenyl)-ureido]-butyl}-piperidin-4-yl)methane-sulfonamide], 5.60 to 6.30; to `CN(CCC(C(=O)NCc1cc(C(F)(F)F)cc(C(F)(F)F)c1)c1ccc(Cl)c(Cl)c1)C1CCCCC1` (racemic) [Example 30, (R,S)-N-(3,5-Bistrifluoromethyl-benzyl)-4-(cyclohexyl-methyl-amino)-2-(3,4-dichloro-phenyl)-butyramide], 5.60 to 6.30. As for `CCNC(=O)NC1CCN(CCC(CNC(=O)Nc2cc(Cl)cc(Cl)c2)c2ccc(-c3cccc(C#N)c3)cc2)C1` [Example 27, (R,S)-1-1-{3-(3′-Cyano-biphenyl-4-yl)-4-[3 (3,5-dichloro-phenyl)-ureido]-butyl}-pyrrolidin-3-yl)-3-ethyl-urea], the negative logarithm of the Ki (pKi) was 5.60 to 6.30. Take `N#Cc1cccc(-c2ccc([C@H](CCN3CC[C@@H](NC(=O)c4cc(Cl)cc(Cl)c4)C3)CNC(=O)Nc3cc(Cl)cc(Cl)c3)cc2)c1` [Example 28, (R,S)-3,5-Dichloro-N-(1-{3-(3′-cyano-biphenyl-4-yl)-4-[3-(3,5-dichloro-phenyl)-ureido]-butyl}-pyrrolidin-3-yl)-benzamide]: the pKi was 5.60 to 6.30.

Take `CNCCC(C(=O)Nc1cc(Cl)cc(Cl)c1)c1ccc(-c2cccc(C#N)c2)cc1` (stereo not drawn) [Example 31, 2-(3′-Cyano-biphenyl-4-yl)-N-(3,5-dichloro-phenyl)-4-methylamino-butyramide]: the negative logarithm of the Ki (pKi) is 5.60 to 6.30. The same measure for `CN(C)CCC(CN1CCN(c2cc(Cl)cc(Cl)c2)C1=O)c1ccc(-c2cccc(C#N)c2)cc1` (stereo not drawn) [Example 32, 4′-{1-[3-(3,5-Dichlorophemyl)-2-oxoimidazolidin-1-ylmethyl]-3-dimethylaminopropyl}-biphenyl-3-carbonitrile]: 5.60 to 6.30; for `CN(C)CCC(OC(=O)Nc1cc(Cl)cc(Cl)c1)c1ccc(-c2ccncc2)cc1` (stereo not drawn) [Example 33, (3,5-Dichloro-phenyl)-carbamic acid 3-dimethylamino-1-(4-pyridin-4-yl-phenyl)-propyl ester]: 5.60 to 6.30. With `CN(C)CCCNCCC(CNC(=O)Nc1cc(Cl)cc(Cl)c1)c1ccc(-c2cccnc2)cc1` (stereo not drawn) [Example 35], the negative logarithm of the Ki (pKi) is 7.30 to 9.40. `CN(C)CCC(CNC(=O)Nc1cc(Cl)cc(Cl)c1)c1ccc(-c2cccnc2)cc1` (stereo not drawn) [Example 36]: the negative-log Ki (pKi) was 7.30 to 9.40. Regarding `O=C(NCC(CCNC1CCCC1)c1ccc(-c2cc[n+]([O-])cc2)cc1)Nc1cc(Cl)cc(Cl)c1` (stereo not drawn) [Example 37], the negative logarithm of the Ki (pKi) is 7.30 to 9.40.

For `CN(C)CCC(CNC(=O)Nc1cc(Cl)cc(Cl)c1)c1ccc(-c2cccc(C(N)=O)c2)cc1` (stereo not drawn) [Example 38], the negative-log Ki (pKi) was 7.30 to 9.40. To `CN(C)CCC(CNC(=O)Nc1cc(Cl)cc(Cl)c1)c1ccc(-c2ccncc2)cc1` (stereo not drawn) [Example 39] belongs 6.30 to 7.29. With `C[N+](C)([O-])CCC(CNC(=O)Nc1cc(Cl)cc(Cl)c1)c1ccc(-c2ccc[n+]([O-])c2)cc1` (stereo not drawn) [Example 40], the pKi was 5.60 to 6.30. With `C[N+](C)([O-])CCC(CNC(=O)Nc1cc(Cl)cc(Cl)c1)c1ccc(-c2cc[n+]([O-])cc2)cc1` (stereo not drawn) [Example 41], the pKi is 5.60 to 6.30. As to `CN(C)CCC(OC(=O)Nc1cc(Cl)cc(Cl)c1)c1ccc(-c2cccnc2)cc1` (stereo not drawn) [Example 42], the pKi was 5.60 to 6.30.

With `N#Cc1cccc(-c2ccc(C(CCNC3CC3)CNC(=O)Nc3cccc(Cl)c3)cc2)c1` (stereo not drawn) [Example 43], the negative-log Ki (pKi) is 7.30 to 9.40. As to `CNCCC(CNC(=O)Nc1ccc(F)c(F)c1)c1ccc(-c2cccc(C#N)c2)cc1` (stereo not drawn) [Example 44], the negative logarithm of the Ki (pKi) was 7.30 to 9.40. The same measure for `CNCCC(CNC(=O)Nc1cccc(Cl)c1)c1ccc(-c2cccc(C#N)c2)cc1` (stereo not drawn) [Example 45]: 7.30 to 9.40; for `CNCCC(CNC(=O)Nc1ccc(F)c(Cl)c1)c1ccc(-c2cccc(C#N)c2)cc1` (stereo not drawn) [Example 46]: 7.30 to 9.40.

Take `CNCCC(CNC(=O)Nc1cccc(F)c1)c1ccc(-c2cccc(C#N)c2)cc1` (stereo not drawn) [Example 49]: the pKi was 7.30 to 9.40.

In the case of `N#Cc1cccc(-c2ccc(C(CCNC3CC3)CNC(=O)Nc3ccc(F)c(F)c3)cc2)c1` (stereo not drawn) [Example 53], the negative-log Ki (pKi) is 7.30 to 9.40. The same measure for `N#Cc1cccc(-c2ccc(C(CCNC3CC3)CNC(=O)Nc3cccc(F)c3)cc2)c1` (stereo not drawn) [Example 54]: 7.30 to 9.40.

On to `N#Cc1cccc(-c2ccc(C(CCNC3CC3)CNC(=O)Nc3ccc(F)c(Cl)c3)cc2)c1` (stereo not drawn) [Example 56], for which the pKi is 7.30 to 9.40.

On to `CNCCC(CNC(=O)Nc1ccccc1)c1ccc(-c2cccc(C#N)c2)cc1` (stereo not drawn) [Example 57], for which the pKi is 7.30 to 9.40. As to `N#Cc1cccc(-c2ccc(C(CCNC3CC3)CNC(=O)Nc3ccccc3)cc2)c1` (stereo not drawn) [Example 58], the negative-log Ki (pKi) was 7.30 to 9.40. For `N#Cc1cccc(-c2ccc(C(CCNC3CC3)CNC(=O)Nc3ccc(F)cc3)cc2)c1` (stereo not drawn) [Example 59], the negative logarithm of the Ki (pKi) is 7.30 to 9.40.

Regarding `CNCCC(CNC(=O)Nc1ccc(F)cc1)c1ccc(-c2cccc(C#N)c2)cc1` (stereo not drawn) [Example 60], the pKi was 7.30 to 9.40.

In the case of `COc1cccc(NC(=O)NCC(CCN(C)C)c2ccc(-c3cccc(C#N)c3)cc2)c1` (stereo not drawn) [Example 63], the pKi was 7.30 to 9.40. To `CNCCC(CNC(=O)Nc1ccc(Cl)cc1)c1ccc(-c2cccc(C#N)c2)cc1` (stereo not drawn) [Example 64] belongs 7.30 to 9.40; to `N#Cc1cccc(-c2ccc(C(CCNC3CC3)CNC(=O)Nc3ccc(Cl)cc3)cc2)c1` (stereo not drawn) [Example 65], 7.30 to 9.40; to `CN(C)CCC(CNC(=O)c1cc(F)cc(F)c1)c1ccc(-c2cccc(C#N)c2)cc1` (stereo not drawn) [Example 66], 7.30 to 9.40.

Take `CN(C)CCC(CNC(=O)c1ccc(F)c(F)c1)c1ccc(-c2cccc(C#N)c2)cc1` (stereo not drawn) [Example 67]: the pKi was 6.30 to 7.29.

For the compound `N#Cc1cccc(-c2ccc(C(CCNC3CC3)CNC(=O)c3ccc(F)c(F)c3)cc2)c1` (stereo not drawn) [Example 68], the negative logarithm of the Ki (pKi) is 6.30 to 7.29. The same measure for `N#Cc1cccc(-c2ccc(C(CCNC3CC3)CNC(=O)c3cc(F)cc(F)c3)cc2)c1` (stereo not drawn) [Example 69]: 6.30 to 7.29.

`CNCCC(CNC(=O)c1cc(F)cc(F)c1)c1ccc(-c2cccc(C#N)c2)cc1` (stereo not drawn) [Example 70]: the negative logarithm of the Ki (pKi) was 6.30 to 7.29.

As to `CN(C)CCC(CNC(=O)Nc1cccnc1)c1ccc(-c2cccc(C#N)c2)cc1` (stereo not drawn) [Example 71], the pKi is 6.30 to 7.29.

As to `COCCNCCC(CNC(=O)Nc1cc(Cl)cc(Cl)c1)c1ccc(-c2cccc(C#N)c2)cc1` (stereo not drawn) [Example 72], the negative-log Ki (pKi) is 7.30 to 9.40. To `N#Cc1cccc(-c2ccc(C(CCNC3CCCC3)CNC(=O)Nc3ccc(F)c(F)c3)cc2)c1` (stereo not drawn) [Example 74] belongs 7.30 to 9.40; to `N#Cc1cccc(-c2ccc(C(CCNC3CCCC3)CNC(=O)Nc3ccc(F)c(Cl)c3)cc2)c1` (stereo not drawn) [Example 75], 7.30 to 9.40; to `N#Cc1cccc(-c2ccc(C(CCNC3CC3)CNC(=O)Nc3cc(Cl)cc(Cl)c3)cc2)c1` (stereo not drawn) [Example 76], 7.30 to 9.40.

Take `N#Cc1cccc(-c2ccc(C(CCN3CCOCC3)CNC(=O)Nc3cc(Cl)cc(Cl)c3)cc2)c1` (stereo not drawn) [Example 81]: the pKi is 7.30 to 9.40.

Consider `N#Cc1cccc(-c2ccc(C(CCNC3CCCC3)CNC(=O)c3cc(Cl)cc(Cl)c3)cc2)c1` (stereo not drawn) [Example 82], for which the pKi is 6.30 to 7.29. `N#Cc1cccc(-c2ccc(C(CCNC3CCCC3)CNC(=O)c3ccc(F)c(F)c3)cc2)c1` (stereo not drawn) [Example 83]: the pKi was 6.30 to 7.29. To `N#Cc1cccc(-c2ccc(C(CCNC3CCCC3)CNC(=O)c3cccc(F)c3)cc2)c1` (stereo not drawn) [Example 84] belongs 6.30 to 7.29. On to `N#Cc1cccc(-c2ccc(C(CCNC3CCCC3)CNC(=O)c3cccc(Cl)c3)cc2)c1` (stereo not drawn) [Example 85], for which the negative logarithm of the Ki (pKi) is 6.30 to 7.29.

Regarding `CS(=O)(=O)N(CCC(CNC(=O)Nc1cc(Cl)cc(Cl)c1)c1ccc(-c2cccc(C#N)c2)cc1)C1CCCC1` (stereo not drawn) [Example 87], the pKi was 5.60 to 6.30. The same measure for `CN(C)CCCNCCC(CNC(=O)Nc1cc(Cl)cc(Cl)c1)c1ccc(-c2cccc(OC(F)(F)F)c2)cc1` (stereo not drawn) [Example 88]: 7.30 to 9.40; for `O=C(NCC(CCNC1CCCC1)c1ccc(-c2ccc(F)c(F)c2)cc1)Nc1cc(Cl)cc(Cl)c1` (stereo not drawn) [Example 90]: 7.30 to 9.40.
